Test results as given in ChEMBL document CHEMBL1201861, “Genomics of Drug Sensitity in Cancer screening data, Wellcome Trust Sanger Institute”.

What was measured:
Assay in all cases: cells
GR-ST = assay type: functional, cell-based; conditions: Homo sapiens
Description: SANGER: Inhibition of human GR-ST cell growth in a cell viability assay.

EW-13 = assay type: functional, cell-based; conditions: Homo sapiens;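 also: growth inhibition of EW-13 cells, read out with a cell viability assay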
Description: SANGER: Inhibition of human EW-13 cell growth in a cell viability assay.

KYSE-270 = assay type: functional, cell-based, Homo sapiens; conditions: Homo sapiens, KYSE-270;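 also: cell growth inhibition measured with a viability assay in the human KYSE-270 line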
Description: SANGER: Inhibition of human KYSE-270 cell growth in a cell viability assay.

MMAC-SF = assay type: functional, cell-based, Homo sapiens; conditions: Homo sapiens, MMAC-SF;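 also: growth inhibition of human MMAC-SF cells, read out with a cell viability assay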
Description: SANGER: Inhibition of human MMAC-SF cell growth in a cell viability assay.

TE-8 = assay type: functional, cell-based, Homo sapiens; conditions: Homo sapiens, TE-8;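 also: growth inhibition of TE-8 cells, measured with a cell viability readout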
Description: SANGER: Inhibition of human TE-8 cell growth in a cell viability assay.

ES3 = assay type: functional, cell-based, Homo sapiens; conditions: Homo sapiens, ES3;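 also: growth inhibition of ES3 cells, read out with a cell viability assay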
Description: SANGER: Inhibition of human ES3 cell growth in a cell viability assay.

HuCCT-1 = assay type: functional, cell-based, Homo sapiens, HuCCT1; conditions: Homo sapiens, HuCCT-1;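 also: growth inhibition of HuCCT-1 cells, read out by a cell viability assay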
Description: SANGER: Inhibition of human HuCCT1 cell growth in a cell viability assay.

T84 = assay type: functional, cell-based, Homo sapiens; conditions: Homo sapiens, T84;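 also: growth inhibition measured with a cell viability readout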
Description: SANGER: Inhibition of human T84 cell growth in a cell viability assay.

SCC-15 = assay type: functional, cell-based, Homo sapiens; conditions: Homo sapiens, SCC-15;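 also: growth inhibition of SCC-15 cells, read out with a cell viability assay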
Description: SANGER: Inhibition of human SCC-15 cell growth in a cell viability assay.

NCI-N87 = assay type: functional, cell-based, Homo sapiens; conditions: Homo sapiens, NCI-N87;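 also: growth inhibition of human NCI-N87 cells, read out with a cell viability assay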
Description: SANGER: Inhibition of human NCI-N87 cell growth in a cell viability assay.

NCI-H1092 = assay type: functional, cell-based; conditions: Homo sapiens;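 also: cell growth inhibition measured with a cell viability assay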
Description: SANGER: Inhibition of human NCI-H1092 cell growth in a cell viability assay.

MHH-NB-11 = assay type: functional, cell-based, Homo sapiens; conditions: Homo sapiens, MHH-NB-11;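 also: growth inhibition of human MHH-NB-11 cells, read out by a cell viability assay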
Description: SANGER: Inhibition of human MHH-NB-11 cell growth in a cell viability assay.

NCI-H1299 = assay type: functional, cell-based, Homo sapiens; conditions: Homo sapiens, NCI-H1299;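 also: growth inhibition of human NCI-H1299 cells, read out by a cell viability assay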
Description: SANGER: Inhibition of human NCI-H1299 cell growth in a cell viability assay.

RO82-W-1 = assay type: functional, cell-based, Homo sapiens; conditions: Homo sapiens, RO82-W-1;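 also: growth inhibition of human RO82-W-1 cells, measured with a cell viability assay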
Description: SANGER: Inhibition of human RO82-W-1 cell growth in a cell viability assay.

P12-Ichikawa = assay type: functional, cell-based; conditions: Homo sapiens
SKG-IIIa = assay type: functional, cell-based, Homo sapiens; conditions: Homo sapiens, SKG-IIIa;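 also: cell growth inhibition, read out with a cell viability assay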
Description: SANGER: Inhibition of human SKG-IIIa cell growth in a cell viability assay.

CAS-1 = assay type: functional, cell-based, Homo sapiens; conditions: Homo sapiens, CAS-1;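 also: growth inhibition of CAS-1 cells, measured with a cell viability assay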
Description: SANGER: Inhibition of human CAS-1 cell growth in a cell viability assay.

HC-1 = assay type: functional, cell-based; conditions: Homo sapiens;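 also: growth inhibition of HC-1 cells measured by a cell viability assay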
Description: SANGER: Inhibition of human HC-1 cell growth in a cell viability assay.

KP-N-YS = assay type: functional, cell-based; conditions: Homo sapiens;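 also: cell viability assay measuring inhibition of cell line growth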
Description: SANGER: Inhibition of human KP-N-YS cell growth in a cell viability assay.

SK-N-DZ = assay type: functional, cell-based, Homo sapiens; conditions: Homo sapiens, SK-N-DZ;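 also: growth inhibition of the cancer cell line, read out through a viability assay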
Description: SANGER: Inhibition of human SK-N-DZ cell growth in a cell viability assay.

HPAF-II = assay type: functional, cell-based, Homo sapiens; conditions: Homo sapiens, HPAF-II;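 also: growth inhibition of HPAF-II cells, read out with a cell viability assay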
Description: SANGER: Inhibition of human HPAF-II cell growth in a cell viability assay.

NCI-H2452 = assay type: functional, cell-based, Homo sapiens; conditions: Homo sapiens, NCI-H2452;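 also: growth inhibition of NCI-H2452 cells, read out with a cell viability assay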
Description: SANGER: Inhibition of human NCI-H2452 cell growth in a cell viability assay.

SCC-4 = assay type: functional, cell-based, Homo sapiens; conditions: Homo sapiens, SCC-4;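 also: growth inhibition of human SCC-4 cells, read out as cell viability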
Description: SANGER: Inhibition of human SCC-4 cell growth in a cell viability assay.

697 = assay type: functional, cell-based; conditions: Homo sapiens
Description: SANGER: Inhibition of human 697 cell growth in a cell viability assay.

OAW-28 = assay type: functional, cell-based, Homo sapiens; conditions: Homo sapiens, OAW-28;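 also: growth inhibition of OAW-28 cells, read out with a cell viability assay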
Description: SANGER: Inhibition of human OAW-28 cell growth in a cell viability assay.

CAL-120 = assay type: functional, cell-based, Homo sapiens; conditions: Homo sapiens, CAL-120;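 also: cell growth inhibition, read out as cell viability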
Description: SANGER: Inhibition of human CAL-120 cell growth in a cell viability assay.

SBC-1 = assay type: functional, cell-based; conditions: Homo sapiens;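 also: cell viability assay measuring growth inhibition of the SBC-1 cell line, IC50 being the concentration that halves growth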
Description: SANGER: Inhibition of human SBC-1 cell growth in a cell viability assay.

MKN-1 = assay type: functional, cell-based, Homo sapiens; conditions: Homo sapiens, MKN-1;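 also: growth inhibition of human MKN1 cells, read out by a cell viability measurement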
Description: SANGER: Inhibition of human MKN1 cell growth in a cell viability assay.

CHL-1 = assay type: functional, cell-based, Homo sapiens; conditions: Homo sapiens, CHL-1;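 also: cell growth inhibition, read out with a cell viability assay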
Description: SANGER: Inhibition of human CHL-1 cell growth in a cell viability assay.

TE-6 = assay type: functional, cell-based, Homo sapiens; conditions: Homo sapiens, TE-6;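 also: growth inhibition of TE-6 cells, read out with a cell viability assay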
Description: SANGER: Inhibition of human TE-6 cell growth in a cell viability assay.

MDA-MB-231 = assay type: functional, cell-based, Homo sapiens; conditions: Homo sapiens, MDA-MB-231
Description: SANGER: Inhibition of human MDA-MB-231 cell growth in a cell viability assay.

GT3TKB = assay type: functional, cell-based, Homo sapiens; conditions: Homo sapiens, GT3TKB;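 also: growth inhibition of the cell line, read out with a cell viability assay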
Description: SANGER: Inhibition of human GT3TKB cell growth in a cell viability assay.

HCC1395 = assay type: functional, cell-based, Homo sapiens; conditions: Homo sapiens, HCC1395;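 also: growth inhibition of HCC1395 cells, read out by a cell viability assay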
Description: SANGER: Inhibition of human HCC1395 cell growth in a cell viability assay.

GCIY = assay type: functional, cell-based, Homo sapiens; conditions: Homo sapiens, GCIY;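 also: growth inhibition of the human GCIY cell line, read out by a cell viability assay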
Description: SANGER: Inhibition of human GCIY cell growth in a cell viability assay.

GOTO = assay type: functional, cell-based, Homo sapiens; conditions: Homo sapiens, GOTO;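 also: growth inhibition of GOTO cells, read out by a cell viability assay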
Description: SANGER: Inhibition of human GOTO cell growth in a cell viability assay.

HCC1937 = assay type: functional, cell-based, Homo sapiens; conditions: Homo sapiens, HCC1937;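 also: growth inhibition measured with a cell viability read-out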
Description: SANGER: Inhibition of human HCC1937 cell growth in a cell viability assay.

RS4-11 = assay type: functional, cell-based; conditions: Homo sapiens;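 also: growth inhibition of RS4-11 cells, read out by a cell viability assay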
Description: SANGER: Inhibition of human RS4-11 cell growth in a cell viability assay.

GB-1 = assay type: functional, cell-based, Homo sapiens; conditions: Homo sapiens, GB-1;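 also: growth of GB-1 cells judged by a viability assay, IC50 marks the concentration inhibiting growth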
Description: SANGER: Inhibition of human GB-1 cell growth in a cell viability assay.

U-266 = assay type: functional, cell-based; conditions: Homo sapiens
Description: SANGER: Inhibition of human U-266 cell growth in a cell viability assay.

NCI-H661 = assay type: functional, cell-based, Homo sapiens; conditions: Homo sapiens, NCI-H661;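 also: cell viability assay read-out, IC50 being the concentration that inhibits growth of the cells by half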
Description: SANGER: Inhibition of human NCI-H661 cell growth in a cell viability assay.

SW982 = assay type: functional, cell-based; conditions: Homo sapiens;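 also: growth inhibition of SW982 cells, read out with a cell viability assay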
Description: SANGER: Inhibition of human SW982 cell growth in a cell viability assay.

769-P = assay type: functional, cell-based, Homo sapiens; conditions: Homo sapiens, 769-P
Description: SANGER: Inhibition of human 769-P cell growth in a cell viability assay.

HuP-T4 = assay type: functional, cell-based, Homo sapiens; conditions: Homo sapiens, HuP-T4;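 also: cell viability assay measuring how much HuP-T4 cell growth is inhibited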
Description: SANGER: Inhibition of human HuP-T4 cell growth in a cell viability assay.

HCC1419 = assay type: functional, cell-based, Homo sapiens; conditions: Homo sapiens, HCC1419;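 also: growth inhibition of human HCC1419 cells, read out as cell viability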
Description: SANGER: Inhibition of human HCC1419 cell growth in a cell viability assay.

CAL-39 = assay type: functional, cell-based, Homo sapiens; conditions: Homo sapiens, CAL-39;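 also: cell viability assay measuring growth inhibition of CAL-39 cells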
Description: SANGER: Inhibition of human CAL-39 cell growth in a cell viability assay.

OVCAR-5 = assay type: functional, cell-based, Homo sapiens; conditions: Homo sapiens, OVCAR-5;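 also: growth inhibition of human OVCAR-5 cells, read out with a cell viability assay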
Description: SANGER: Inhibition of human OVCAR-5 cell growth in a cell viability assay.

KYSE-140 = assay type: functional, cell-based, Homo sapiens; conditions: Homo sapiens, KYSE-140;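 also: cell viability assay measuring growth inhibition in human KYSE-140 cells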
Description: SANGER: Inhibition of human KYSE-140 cell growth in a cell viability assay.

COLO-680N = assay type: functional, cell-based, Homo sapiens; conditions: Homo sapiens, COLO-680N;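 also: cell viability assay used to measure inhibition of COLO-680N cell growth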
Description: SANGER: Inhibition of human COLO-680N cell growth in a cell viability assay.

MS-1 = assay type: functional, cell-based; conditions: Homo sapiens;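 also: growth inhibition of MS-1 cells, read out by cell viability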
Description: SANGER: Inhibition of human MS-1 cell growth in a cell viability assay.

SBC-5 = assay type: functional, cell-based, Homo sapiens; conditions: Homo sapiens, SBC-5;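 also: cell viability assay read-out, IC50 is the concentration that inhibits growth of the cells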
Description: SANGER: Inhibition of human SBC-5 cell growth in a cell viability assay.

A2058 = assay type: functional, cell-based; conditions: Homo sapiens;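 also: reduction of A2058 cell growth, read out with a viability assay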
Description: SANGER: Inhibition of human A2058 cell growth in a cell viability assay.

PFSK-1 = assay type: functional, cell-based, Homo sapiens; conditions: Homo sapiens, PFSK-1;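 also: cell viability assay measuring how strongly compounds suppress growth of human PFSK-1 cells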
Description: SANGER: Inhibition of human PFSK-1 cell growth in a cell viability assay.

How did the IC50 (GR-ST) turn out when `COc1cc([C@@H]2c3cc4c(cc3[C@@H](O[C@@H]3O[C@@H]5CO[C@@H](C)O[C@H]5[C@H](O)[C@H]3O)[C@H]3COC(=O)[C@H]23)OCO4)cc(OC)c1O` [ETOPOSIDE] was run?
The IC50 was 6.69 µM.

What about the IC50 (EW-13) of the same compound?
The IC50 was 0.0889 µM.

And the IC50 (KYSE-270)?
Its IC50 is 0.252 µM.

What about the IC50 (MMAC-SF) of the same compound?
Its IC50 is 6.88 µM.

And the IC50 (TE-8)?
Its IC50 is 8.75 µM.

And the IC50 (ES3)?
The IC50 was 0.628 µM.

What about the IC50 (HuCCT-1) of the same compound?
Its IC50 is 1.91 µM.

And the IC50 (T84)?
The IC50 was greater than 16 µM.

And the IC50 (SCC-15)?
The IC50 was 13.1 µM.

What about the IC50 (NCI-N87) of the same compound?
Its IC50 is 15.8 µM.

What about the IC50 (NCI-H1092) of the same compound?
The IC50 was greater than 16 µM.

And the IC50 (MHH-NB-11)?
The IC50 was 0.524 µM.

And the IC50 (NCI-H1299)?
Its IC50 is 2.07 µM.

What about the IC50 (RO82-W-1) of the same compound?
Its IC50 is greater than 16 µM.

What about the IC50 (P12-Ichikawa) of the same compound?
Its IC50 is 0.317 µM.

And the IC50 (SKG-IIIa)?
The IC50 was greater than 16 µM.

And the IC50 (CAS-1)?
Its IC50 is greater than 16 µM.

What about the IC50 (HC-1) of the same compound?
The IC50 was 0.54 µM.

What about the IC50 (KP-N-YS) of the same compound?
Its IC50 is 4.24 µM.

And the IC50 (SK-N-DZ)?
Its IC50 is greater than 16 µM.

What about the IC50 (HPAF-II) of the same compound?
The IC50 was greater than 16 µM.

And the IC50 (NCI-H2452)?
Its IC50 is greater than 16 µM.

And the IC50 (SCC-4)?
Its IC50 is 7.2 µM.

And the IC50 697?
The IC50 was 0.243 µM.

What about the IC50 (OAW-28) of the same compound?
The IC50 was 2.15 µM.

And the IC50 (CAL-120)?
Its IC50 is 15.6 µM.

What about the IC50 (SBC-1) of the same compound?
Its IC50 is greater than 16 µM.

And the IC50 (MKN-1)?
Its IC50 is 0.382 µM.

What about the IC50 (CHL-1) of the same compound?
Its IC50 is 0.883 µM.

And the IC50 (TE-6)?
The IC50 was greater than 16 µM.

What about the IC50 (MDA-MB-231) of the same compound?
Its IC50 is 9.09 µM.

And the IC50 (GT3TKB)?
Its IC50 is 0.406 µM.

What about the IC50 (HCC1395) of the same compound?
The IC50 was greater than 16 µM.

And the IC50 (GCIY)?
Its IC50 is 0.925 µM.

And the IC50 (GOTO)?
Its IC50 is 6.38 µM.

And the IC50 (HCC1937)?
The IC50 was 15.8 µM.

What about the IC50 (RS4-11) of the same compound?
Its IC50 is 0.196 µM.

What about the IC50 (GB-1) of the same compound?
Its IC50 is 1.61 µM.

And the IC50 (U-266)?
The IC50 was greater than 16 µM.

And the IC50 (NCI-H661)?
The IC50 was 4.34 µM.

What about the IC50 (SW982) of the same compound?
The IC50 was 0.131 µM.

And the IC50 (769-P)?
Its IC50 is 2.26 µM.

And the IC50 (HuP-T4)?
Its IC50 is 1.45 µM.

What about the IC50 (HCC1419) of the same compound?
The IC50 was greater than 16 µM.

What about the IC50 (CAL-39) of the same compound?
Its IC50 is 4.64 µM.

What about the IC50 (OVCAR-5) of the same compound?
The IC50 was 1.54 µM.

And the IC50 (KYSE-140)?
The IC50 was 4.92 µM.

And the IC50 (COLO-680N)?
Its IC50 is 8.26 µM.

What about the IC50 (MS-1) of the same compound?
The IC50 was 5.64 µM.

And the IC50 (SBC-5)?
The IC50 was 0.303 µM.

And the IC50 (A2058)?
The IC50 was 0.425 µM.

What about the IC50 (PFSK-1) of the same compound?
Its IC50 is greater than 16 µM.
